US4925869A, “Therapeutic agents” (Imperial Chemical Industries PLC, priority 1986, dated 1990)

Experiments:
Format in all cases: cell-based
[1] = molecular target: T1, human, citrated platelet rich plasma (Homo sapiens, UniProt P21731); assay: blood platelet aggregation test, U46619-induced aggregation of human citrated platelet rich plasma (test (b)); details: U46619, procedure (b)
T1 construct: aggregating human, citrated platelet rich plasma; from tissue; host or cells: human citrated platelet rich plasma (native platelets)
T1 sequence (P21731 1-343): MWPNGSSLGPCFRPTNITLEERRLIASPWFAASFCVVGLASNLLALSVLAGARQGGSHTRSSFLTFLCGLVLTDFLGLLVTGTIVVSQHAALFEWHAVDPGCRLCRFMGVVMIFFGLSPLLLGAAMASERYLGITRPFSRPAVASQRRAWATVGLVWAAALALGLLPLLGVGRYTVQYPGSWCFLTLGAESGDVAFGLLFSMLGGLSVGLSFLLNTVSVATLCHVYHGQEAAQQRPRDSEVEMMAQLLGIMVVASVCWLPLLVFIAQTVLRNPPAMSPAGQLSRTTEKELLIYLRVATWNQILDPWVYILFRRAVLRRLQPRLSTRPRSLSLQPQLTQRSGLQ
Source text: (b) a blood platelet aggregation test based on that described by Born (Nature, 1962, 194, 927-929) and involving:
(i) aggregating human, citrated platelet rich plasma by addition of the TXA2 mimetic agent U46619 so that a dose-response curve is generated:
(ii) generating a dose-response curve for U46619 stimulated platelet aggregation in the presence of increasing amounts of test compound (generally in the range, 10^-5 M to 10^-10 M); and
(iii) calculating a KB value indicating potency of TXA2 antagonism for the test compound, averaged over several concentrations, from the calculated 50% response value for U46619 aggregation in the presence and absence of test compound: and (c) a bronchoconstriction test involving measuring the inhibition by test compound of the bronchoconstriction induced in the Konzett-Rossler, anaesthetised guinea-pig model (as modified by Collier and James, Brit. J. Pharmacol., 1967, 30, 283-307) by intravenous administration of the TXA2 mimetic agent, U46619 and involving: […]

rat aortal strip = molecular target: T2, rat aortal strip (Rattus norvegicus, UniProt P34978); assay: rat aortal strip model, antagonism of the TXA2 mimetic U46619 (test (a)); details: agonist U46619, procedure (a), read-out: pA2 (converted)
T2 construct: the rat aortal strip model developed by Kennedy et alia; from tissue; host or cells: rat aorta strip
T2 sequence (P34978 1-341): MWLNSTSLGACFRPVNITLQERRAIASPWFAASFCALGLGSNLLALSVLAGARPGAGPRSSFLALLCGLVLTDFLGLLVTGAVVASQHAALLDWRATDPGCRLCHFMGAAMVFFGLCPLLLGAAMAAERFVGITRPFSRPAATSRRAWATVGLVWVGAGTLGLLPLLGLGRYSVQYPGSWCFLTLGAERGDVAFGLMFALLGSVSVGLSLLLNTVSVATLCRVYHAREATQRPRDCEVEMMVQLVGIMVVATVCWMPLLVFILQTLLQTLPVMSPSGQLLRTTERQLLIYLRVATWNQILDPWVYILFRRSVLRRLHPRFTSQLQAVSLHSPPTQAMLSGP
Source text: As stated earlier, the compounds of formula I are antagonists of one or more of the actions of TXA2, for example certain of its actions on blood platelets, the vasculature and/or the lung.
(a) The rabbit aortal strip model devised by Piper and Vane (Nature, 1969, 223, 29-35) or the rat aortal strip model developed by Kennedy et alia (Prostaglandins, 1982, 24, 667-689), using as agonist the TXA2 mimetic agent known as U46619 (described by R. L. Jones et alia. in "Chemistry, Biochemistry and Pharmacological Activity of Prostanoids" edited by S. M. Roberts and F. Scheinmann, at page 211, Pergamon Press, 1979);

human platelets = assay: inhibition of arachidonic acid induced aggregation of human platelets
Source text: The beneficial effects of combining one of the novel TXA2 antagonists of formula I defined hereinabove with a TXA2 synthetase inhibitor may be illustrated in vitro, for example by evaluating their effects in inhibiting arachidonic acid induced aggregation of human platelets, using standard procedures well known in the art.

SMILES | Kb [1] | Kb (rat aortal strip) | inhibition of arachidonic acid induced aggregation of human platelets (human platelets; tested alone at 10^-9 M) | inhibition of arachidonic acid induced aggregation of human platelets (human platelets; tested alone at 10^-4 M)
CC(C)(Oc1ccccc1)[C@H]1OC[C@@H](C/C=C\CCC(=O)O)[C@@H](c2ccccc2O)O1 (relative stereo) [Example 6, 4(Z) 6 ([2,4,5 cis]4-o-hydroxyphenyl-2-[1-methyl-1-phenoxyethyl] -1,3-dioxan-5-yl)hexenoic acid] | 17.5 nM | 0.195 nM | no significant inhibition | –
O=C(O)c1ccc(OCCn2ccnc2)cc1 [dazoxiben, reference compound] | – | – | – | no significant inhibition
